Source: patent US20060069132A1, “Azolecarboxamide herbicides” (priority 2004, published 2006)

Columns and labels:
giant foxtail [1] = assay: Test C pre-/postemergence herbicide test; assay type: in vivo, Setaria faberi; conditions: for Plant response rating, Foxtail, Giant / Plant response rating (0 = no effect, 100 = complete control), Foxtail, Giant: preemergence
Excerpt: (§1) Seeds of plant species selected from bermudagrass (Cynodon dactylon (L.) Pers.), Surinam grass (Urochloa decumbens (Staph) R. D. Webster, previously named Brachiaria decumbens Stapf), cocklebur (Xanthium strumarium L.), corn (Zea mays L.), large crabgrass (Digitaria sanguinalis (L.) Scop.), woolly cupgrass (Eriochloa villosa (Thunb.) Kunth), giant foxtail (Setaria faberi Herrm.), goosegrass (Eleusine indica (L.) Gaertn.), johnsongrass (Sorghum halepense (L.) Pers.), kochia (Kochia scoparia (L.) Schrad.), lambsquarters (Chenopodium album L.), morningglory (Ipomoea coccinea L.), eastern black nightshade (Solanum ptycanthum Dunal), yellow nutsedge (Cyperus esculentus L.), pigweed (Amaranthus retroflexus L.), common ragweed (Ambrosia elatior L.), soybean (Glycine max (L.) Merr.), common (oilseed) sunflower (Helianthus annuus L.) and velvetleaf (Abutilon theophrasti Medik.) were planted and treated preemergence with test chemicals formulated in a non-phytotoxic solvent mixture which included a surfactant.
(§2) At the same time, plants selected from these crop and weed species and also winter barley (Hordeum vulgare L.), blackgrass (Alopecurus myosuroides Huds.), canarygrass (Phalaris minor Retz.), chickweed (Stellaria media (L.) Vill.), downy bromegrass (Bromus tectorum L.), green foxtail (Setaria viridis (L.) Beauv.), Italian ryegrass (Lolium multiflorum Lam.), wheat (Triticum aestivum L.), wild oat (Avenafatua L.) and windgrass (Apera spica-venti (L.) Beauv.) were treated with postemergence applications of some of the test chemicals formulated in the same manner. Plants ranged in height from 2 to 18 cm (1- to 4-leaf stage) for postemergence treatments. Plant species in the flooded paddy test consisted of rice (Oryza sativa), smallflower umbrella sedge (Cyperus difformis L.), ducksalad (Heteranthera limosa (Sw.) Willd.) and barnyardgrass (Echinochloa crus-galli (L.) Beauv.) grown to the 2-leaf stage for testing. Treated plants and controls were maintained in a greenhouse for 12 to 14 days, after which time all species were compared to controls and visually evaluated. Plant response ratings, summarized in Table C, are based on a scale of 0 to 100 where 0 is no effect and 100 is complete control. A dash (-) response means no test result.

goosegrass = assay: Test C pre-/postemergence herbicide test; assay type: in vivo, Eleusine indica; conditions: for Plant response rating, Goosegrass / Plant response rating (0 = no effect, 100 = complete control), Goosegrass: preemergence
Excerpt: as §1, §2

yellow nutsedge = assay: Test C pre-/postemergence herbicide test; assay type: in vivo, Cyperus esculentus; conditions: for Plant response rating, Nutsedge, Yellow / Plant response rating (0 = no effect, 100 = complete control), Nutsedge, Yellow: preemergence
Excerpt: as §1, §2

pigweed = assay: Test C pre-/postemergence herbicide test; assay type: in vivo, Amaranthus retroflexus; conditions: for Plant response rating, Pigweed / Plant response rating (0 = no effect, 100 = complete control), Pigweed: preemergence
Excerpt: as §1, §2

common ragweed = assay: Test C pre-/postemergence herbicide test; assay type: in vivo, Ambrosia elatior; set-up: key to Plant response rating, Ragweed: 0 = no effect, 100 = complete control; conditions: for Plant response rating, Ragweed / Plant response rating (0 = no effect, 100 = complete control), Ragweed: preemergence
Excerpt: as §1, §2

velvetleaf = assay: Test C pre-/postemergence herbicide test; assay type: in vivo, Abutilon theophrasti; conditions: for Plant response rating, Velvetleaf / Plant response rating (0 = no effect, 100 = complete control), Velvetleaf: preemergence
Excerpt: as §1, §2

large crabgrass = assay: Test C pre-/postemergence herbicide test; assay type: in vivo, Digitaria sanguinalis; conditions: for Plant response rating, Crabgrass, Large / Plant response rating (0 = no effect, 100 = complete control), Crabgrass, Large: preemergence
Excerpt: as §1, §2

soybean = assay: Test C pre-/postemergence herbicide test; assay type: in vivo, Glycine max; conditions: for Plant response rating, Soybean / Plant response rating (0 = no effect, 100 = complete control), Soybean: preemergence
Excerpt: as §1, §2

morningglory = assay: Test A pre-/postemergence herbicide test; assay type: in vivo, Ipomoea spp.; conditions: for Plant response rating, Morningglory: Postemergence; for Morningglory plant response rating: Preemergence
Summary of the method: (§3)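 Pre: seeded sandy loam, directed soil spray, compound in non-phytotoxic solvent + surfactant. Post: 1–2-leaf plants (2–10 cm), sprayed to runoff. Greenhouse ~10 d; visual injury vs untreated, 0–100 scale.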

redroot pigweed = assay: Test A pre-/postemergence herbicide test; assay type: in vivo, Amaranthus retroflexus; conditions: for Plant response rating, Pigweed: Postemergence; for Pigweed plant response rating: Preemergence
Summary of the method: as §3

barnyardgrass = assay: Test C flooded paddy test; assay type: in vivo, Echinochloa crus-galli
Summary of the method: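 Ratings (0 = no effect, 100 = complete control) come from visual comparison with untreated plants after 12 to 14 days in the greenhouse. Treatment was postemergence at the 1- to 4-leaf stage (2–18 cm), or at the 2-leaf stage for the flooded paddy barnyardgrass.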

giant foxtail [2] = assay: Test A pre-/postemergence herbicide test; assay type: in vivo, Setaria faberi; conditions: for Plant response rating, Foxtail, Giant: Postemergence; for Foxtail, Giant plant response rating: Preemergence
Summary of the method: as §3

ducksalad = assay: Test C flooded paddy test; assay type: in vivo, Heteranthera limosa
[3] = 500 g ai/ha, scale 0 to 100 (0 no effect, 100 complete control), visual, 12 to 14 days
[4] = 125 g ai/ha, scale 0 (no effect) to 100 (complete control), visual, 12 to 14 days
[5] = 250 g ai/ha, scale 0 to 100 (0 no effect, 100 complete control), visual, 12 to 14 days
[6] = Preemergence, 500 g ai/ha, scale 0 to 100, 0 no effect, 100 complete control
[7] = 500 g ai/ha, 0 to 100 scale, 0 no effect, 100 complete control
[8] = 2000 g ai/ha, 0 to 100 scale, 0 no effect, 100 complete control
[9] = 500 g ai/ha, visual rating, 0 to 100 scale (0 no effect, 100 complete control)
[10] = 62 g ai/ha, scale 0 to 100 (0 no effect, 100 complete control)
[11] = 125 g ai/ha, scale of 0 to 100, 0 is no effect, 100 is complete control
[12] = 250 g ai/ha, scale of 0 to 100, 0 is no effect, 100 is complete control
[13] = 500 g ai/ha, visual rating after 12 to 14 days, scale 0 to 100 (0 no effect, 100 complete control)

CCN(CC)C(=O)c1cccc(NC(=O)c2nn(C(C)(C)C)nc2C)c1 [Compound 418]
Plant response rating, Foxtail, Giant (giant foxtail [1]; 62 g ai/ha, scale 0 to 100): 65
Plant response rating (0 = no effect, 100 = complete control), Foxtail, Giant (giant foxtail [1]; 125 g ai/ha): 95
Plant response rating, Foxtail, Giant (giant foxtail [1]; 250 g ai/ha, scale 0-100): 100
Plant response rating, Foxtail, Giant (giant foxtail [1]; [3]): 100
Plant response rating, Goosegrass (goosegrass; 62 g ai/ha, scale 0 to 100): 55
Plant response rating (0 = no effect, 100 = complete control), Goosegrass (goosegrass; 125 g ai/ha): 100
Plant response rating, Goosegrass (goosegrass; 250 g ai/ha, scale 0-100): 100
Plant response rating, Goosegrass (goosegrass; [3]): 100
Plant response rating, Nutsedge, Yellow (yellow nutsedge; 62 g ai/ha, scale 0 to 100): 0
Plant response rating (0 = no effect, 100 = complete control), Nutsedge, Yellow (yellow nutsedge; 125 g ai/ha): 0
Plant response rating, Nutsedge, Yellow (yellow nutsedge; [3]): 0
Plant response rating, Pigweed (pigweed; 62 g ai/ha, scale 0 to 100): 100
Plant response rating (0 = no effect, 100 = complete control), Pigweed (pigweed; 125 g ai/ha): 100
Plant response rating, Pigweed (pigweed; [3]): 100
Plant response rating, Ragweed (common ragweed; 62 g ai/ha, scale 0 to 100): 50
Plant response rating (0 = no effect, 100 = complete control), Ragweed (common ragweed; 125 g ai/ha): 70
Plant response rating, Ragweed (common ragweed; [3]): 100
Plant response rating, Velvetleaf (velvetleaf; 62 g ai/ha, scale 0 to 100): 90
Plant response rating (0 = no effect, 100 = complete control), Velvetleaf (velvetleaf; 125 g ai/ha): 95
Plant response rating, Velvetleaf (velvetleaf; [3]): 100
Plant response rating, Crabgrass, Large (large crabgrass; 62 g ai/ha, scale 0 to 100): 95
Plant response rating (0 = no effect, 100 = complete control), Crabgrass, Large (large crabgrass; 125 g ai/ha): 100
Plant response rating, Crabgrass, Large (large crabgrass; 250 g ai/ha, scale 0-100): 100
Plant response rating, Crabgrass, Large (large crabgrass; [3]): 100
Plant response rating, Soybean (soybean; 62 g ai/ha, scale 0 to 100): 0
Plant response rating (0 = no effect, 100 = complete control), Soybean (soybean; 125 g ai/ha): 20
Plant response rating, Soybean (soybean; [3]): 90

CCCn1nc(C(C)(C)C)cc1C(=O)Nc1cccc(C(=O)NCC)c1 [Compound 57]
Plant response rating (0 = no effect, 100 = complete control), Foxtail, Giant (giant foxtail [1]; 62 g ai/ha): 20
Plant response rating, Foxtail, Giant (giant foxtail [1]; [4]): 95
Plant response rating, Foxtail, Giant (giant foxtail [1]; [5]): 100
Foxtail, Giant plant response rating (giant foxtail [1]; [6]): 100
Plant response rating (0 = no effect, 100 = complete control), Goosegrass (goosegrass; 62 g ai/ha): 45
Plant response rating, Goosegrass (goosegrass; [4]): 75
Plant response rating, Goosegrass (goosegrass; [5]): 90
Goosegrass plant response rating (goosegrass; [6]): 90
Plant response rating (0 = no effect, 100 = complete control), Nutsedge, Yellow (yellow nutsedge; 62 g ai/ha): 0
Plant response rating, Nutsedge, Yellow (yellow nutsedge; [4]): 0
Plant response rating, Nutsedge, Yellow (yellow nutsedge; [5]): 0
Nutsedge, Yellow plant response rating (yellow nutsedge; [6]): 20
Plant response rating (0 = no effect, 100 = complete control), Pigweed (pigweed; 62 g ai/ha): 100
Plant response rating, Pigweed (pigweed; [4]): 100
Plant response rating, Pigweed (pigweed; [5]): 100
Pigweed plant response rating (pigweed; [6]): 100
Plant response rating (0 = no effect, 100 = complete control), Ragweed (common ragweed; 62 g ai/ha): 65
Plant response rating, Ragweed (common ragweed; [4]): 100
Plant response rating, Ragweed (common ragweed; [5]): 100
Ragweed plant response rating (common ragweed; [6]): 100
Plant response rating (0 = no effect, 100 = complete control), Velvetleaf (velvetleaf; 62 g ai/ha): 0
Plant response rating, Velvetleaf (velvetleaf; [4]): 0
Plant response rating, Velvetleaf (velvetleaf; [5]): 100
Velvetleaf plant response rating (velvetleaf; [6]): 100
Plant response rating (0 = no effect, 100 = complete control), Crabgrass, Large (large crabgrass; 62 g ai/ha): 95
Plant response rating, Crabgrass, Large (large crabgrass; [4]): 100
Plant response rating, Crabgrass, Large (large crabgrass; [5]): 100
Crabgrass, Large plant response rating (large crabgrass; [6]): 100
Plant response rating (0 = no effect, 100 = complete control), Soybean (soybean; 62 g ai/ha): 0
Plant response rating, Soybean (soybean; [4]): 0
Plant response rating, Soybean (soybean; [5]): 0
Soybean plant response rating (soybean; [6]): 60

CCn1nc(C(C)(C)C)cc1C(=O)Nc1cccc(C(=O)NOC)c1 [Compound 67]
Plant response rating, Morningglory (morningglory; [7]): 5
Plant response rating, Morningglory (morningglory; [8]): 20
Morningglory plant response rating (morningglory; [9]): 0
Morningglory plant response rating (morningglory; [8]): 30
Plant response rating, Pigweed (redroot pigweed; [7]): 50
Plant response rating, Pigweed (redroot pigweed; [8]): 85
Pigweed plant response rating (redroot pigweed; [9]): 0
Pigweed plant response rating (redroot pigweed; [8]): 90
Barnyardgrass plant response rating (barnyardgrass; [10]): 0
Barnyardgrass plant response rating (barnyardgrass; [11]): 0
Barnyardgrass plant response rating (barnyardgrass; [12]): 10
Plant response rating, Barnyardgrass (barnyardgrass; [13]): 25
Plant response rating, Foxtail, Giant (giant foxtail [2]; [7]): 10
Plant response rating, Foxtail, Giant (giant foxtail [2]; [8]): 20
Foxtail, Giant plant response rating (giant foxtail [2]; [9]): 0
Foxtail, Giant plant response rating (giant foxtail [2]; [8]): 30
Ducksalad plant response rating (ducksalad; [10]): 30
Ducksalad plant response rating (ducksalad; [11]): 30
Ducksalad plant response rating (ducksalad; [12]): 40
Plant response rating, Ducksalad (ducksalad; [13]): 40
